Measured values published in US10941158B2, “Pyrazole ACC inhibitors and uses thereof” (Gilead Apollo, LLC, priority 2015, dated 2021).
pIC50: −log10 of the molar value. Converted amounts (≈) assume the structure as drawn. Where two headings read alike, the source gives them in different places.

Key:
fungal (fACC2) ACC2 = fungal (fACC2) ACC2 (UniProt Q00955); conditions: read-out: fACC2 IC50; fungal ACC2, ADP-Glo
C. albicans ATCC 90028 = experiment: Anti-Fungal (Candida) Activity Assay, broth microtiter MIC; format: cell-based; conditions: read-out: MIC C. albicans ATCC 90028
Procedure, shortened: (§1)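 MIC by visual comparison of challenged wells with growth control, scored at 48 h. Setup: CLSI M27-A3 broth microtiter plates, RPMI 1640+MOPS medium, direct colony suspension from overnight Sabouraud agar cultures (35 °C, 24 h).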

C. krusei ATCC 6258 = experiment: as above; format: cell-based; conditions: Pichia kudriavzevii, read-out: MIC C. krusei ATCC 6258
Procedure, shortened: as §1

[1] = test system: C. parapsilosis ATCC 22019; experiment: as above; format: cell-based; conditions: Lodderomyces parapsilosis, read-out: MIC C. parapsilosis ATCC 22019
Procedure, shortened: as §1

human (hACC2) ACC2 = human (hACC2) ACC2 (Homo sapiens, UniProt O00763); experiment: In vitro Acetyl-CoA Carboxylase (ACC) inhibition assay (ADP-Glo), hACC2; format: biochemical
Protocol: The detailed procedure is as follows. […] 10 μL ADP glo reagent was added. […] 20 μL kinase detection reagent was added.
“NA” stands for “not assayed.”

[2] = ATCC90028, 3 replicates, MIC recorded at 48 h
[3] = ATCC6258, 3 replicates, MIC recorded at 48 h
[4] = ATCC22019, 3 replicates, MIC recorded at 48 h

Chain of human (hACC2) ACC2 (O00763 whole entry): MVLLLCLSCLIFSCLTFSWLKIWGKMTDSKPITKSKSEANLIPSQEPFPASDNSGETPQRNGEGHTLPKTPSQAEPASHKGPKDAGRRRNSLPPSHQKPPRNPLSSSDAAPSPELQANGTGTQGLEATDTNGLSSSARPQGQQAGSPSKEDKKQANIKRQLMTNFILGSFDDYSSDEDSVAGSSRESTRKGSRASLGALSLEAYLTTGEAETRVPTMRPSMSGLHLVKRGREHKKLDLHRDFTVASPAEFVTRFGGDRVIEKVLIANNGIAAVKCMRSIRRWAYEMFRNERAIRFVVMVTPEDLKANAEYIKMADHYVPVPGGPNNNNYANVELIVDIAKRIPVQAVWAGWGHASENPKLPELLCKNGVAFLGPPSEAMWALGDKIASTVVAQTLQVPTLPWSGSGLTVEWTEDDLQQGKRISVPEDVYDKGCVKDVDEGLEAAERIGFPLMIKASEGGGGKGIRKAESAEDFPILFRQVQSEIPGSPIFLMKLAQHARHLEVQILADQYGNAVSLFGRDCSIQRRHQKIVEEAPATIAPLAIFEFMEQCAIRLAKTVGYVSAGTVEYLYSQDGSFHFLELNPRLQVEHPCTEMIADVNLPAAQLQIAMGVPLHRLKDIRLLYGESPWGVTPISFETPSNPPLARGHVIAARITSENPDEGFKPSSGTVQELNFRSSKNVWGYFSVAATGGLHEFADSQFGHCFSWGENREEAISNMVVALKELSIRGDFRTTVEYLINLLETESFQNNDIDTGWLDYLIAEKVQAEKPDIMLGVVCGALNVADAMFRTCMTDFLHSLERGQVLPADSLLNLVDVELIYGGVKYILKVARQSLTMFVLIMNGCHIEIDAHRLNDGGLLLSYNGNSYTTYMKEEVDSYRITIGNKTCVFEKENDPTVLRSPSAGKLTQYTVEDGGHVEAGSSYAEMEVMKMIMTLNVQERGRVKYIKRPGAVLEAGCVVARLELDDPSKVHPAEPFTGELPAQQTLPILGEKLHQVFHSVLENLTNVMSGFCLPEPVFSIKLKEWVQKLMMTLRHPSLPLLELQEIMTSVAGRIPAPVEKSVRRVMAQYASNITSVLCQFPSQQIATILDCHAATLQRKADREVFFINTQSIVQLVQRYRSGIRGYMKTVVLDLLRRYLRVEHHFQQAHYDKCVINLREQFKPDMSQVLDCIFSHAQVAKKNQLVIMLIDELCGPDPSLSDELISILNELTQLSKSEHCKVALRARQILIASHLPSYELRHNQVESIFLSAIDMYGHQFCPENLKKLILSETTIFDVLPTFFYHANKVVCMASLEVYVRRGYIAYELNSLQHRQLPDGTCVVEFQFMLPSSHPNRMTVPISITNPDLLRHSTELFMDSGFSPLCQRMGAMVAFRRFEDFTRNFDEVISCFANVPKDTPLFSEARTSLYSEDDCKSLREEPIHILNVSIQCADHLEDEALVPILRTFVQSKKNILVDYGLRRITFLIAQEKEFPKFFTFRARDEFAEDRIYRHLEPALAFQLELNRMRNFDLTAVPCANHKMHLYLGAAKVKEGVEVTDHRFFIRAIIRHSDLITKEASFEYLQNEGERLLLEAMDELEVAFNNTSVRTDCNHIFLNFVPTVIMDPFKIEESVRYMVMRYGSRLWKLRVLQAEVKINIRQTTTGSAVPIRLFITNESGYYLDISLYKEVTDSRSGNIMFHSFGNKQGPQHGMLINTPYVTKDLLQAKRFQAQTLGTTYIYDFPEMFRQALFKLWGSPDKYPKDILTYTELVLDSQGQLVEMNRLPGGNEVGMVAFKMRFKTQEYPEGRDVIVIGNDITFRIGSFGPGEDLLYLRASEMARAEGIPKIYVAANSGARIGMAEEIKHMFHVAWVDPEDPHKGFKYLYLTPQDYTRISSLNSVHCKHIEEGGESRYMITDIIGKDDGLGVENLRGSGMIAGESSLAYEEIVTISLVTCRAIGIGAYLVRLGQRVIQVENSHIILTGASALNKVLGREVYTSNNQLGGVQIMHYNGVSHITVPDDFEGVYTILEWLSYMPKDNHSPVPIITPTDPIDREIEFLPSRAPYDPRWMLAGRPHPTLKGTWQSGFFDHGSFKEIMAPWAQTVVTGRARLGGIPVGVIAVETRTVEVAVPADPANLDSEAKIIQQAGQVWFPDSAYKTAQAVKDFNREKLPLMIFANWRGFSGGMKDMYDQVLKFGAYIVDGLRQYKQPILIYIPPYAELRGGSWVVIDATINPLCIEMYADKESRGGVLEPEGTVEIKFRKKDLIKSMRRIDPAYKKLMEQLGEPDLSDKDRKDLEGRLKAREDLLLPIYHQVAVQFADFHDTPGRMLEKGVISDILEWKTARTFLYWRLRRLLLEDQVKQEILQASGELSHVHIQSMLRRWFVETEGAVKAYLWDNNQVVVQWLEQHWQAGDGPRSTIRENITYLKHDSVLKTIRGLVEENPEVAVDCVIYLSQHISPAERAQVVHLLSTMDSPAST
Chain of fungal (fACC2) ACC2 (Q00955 whole entry): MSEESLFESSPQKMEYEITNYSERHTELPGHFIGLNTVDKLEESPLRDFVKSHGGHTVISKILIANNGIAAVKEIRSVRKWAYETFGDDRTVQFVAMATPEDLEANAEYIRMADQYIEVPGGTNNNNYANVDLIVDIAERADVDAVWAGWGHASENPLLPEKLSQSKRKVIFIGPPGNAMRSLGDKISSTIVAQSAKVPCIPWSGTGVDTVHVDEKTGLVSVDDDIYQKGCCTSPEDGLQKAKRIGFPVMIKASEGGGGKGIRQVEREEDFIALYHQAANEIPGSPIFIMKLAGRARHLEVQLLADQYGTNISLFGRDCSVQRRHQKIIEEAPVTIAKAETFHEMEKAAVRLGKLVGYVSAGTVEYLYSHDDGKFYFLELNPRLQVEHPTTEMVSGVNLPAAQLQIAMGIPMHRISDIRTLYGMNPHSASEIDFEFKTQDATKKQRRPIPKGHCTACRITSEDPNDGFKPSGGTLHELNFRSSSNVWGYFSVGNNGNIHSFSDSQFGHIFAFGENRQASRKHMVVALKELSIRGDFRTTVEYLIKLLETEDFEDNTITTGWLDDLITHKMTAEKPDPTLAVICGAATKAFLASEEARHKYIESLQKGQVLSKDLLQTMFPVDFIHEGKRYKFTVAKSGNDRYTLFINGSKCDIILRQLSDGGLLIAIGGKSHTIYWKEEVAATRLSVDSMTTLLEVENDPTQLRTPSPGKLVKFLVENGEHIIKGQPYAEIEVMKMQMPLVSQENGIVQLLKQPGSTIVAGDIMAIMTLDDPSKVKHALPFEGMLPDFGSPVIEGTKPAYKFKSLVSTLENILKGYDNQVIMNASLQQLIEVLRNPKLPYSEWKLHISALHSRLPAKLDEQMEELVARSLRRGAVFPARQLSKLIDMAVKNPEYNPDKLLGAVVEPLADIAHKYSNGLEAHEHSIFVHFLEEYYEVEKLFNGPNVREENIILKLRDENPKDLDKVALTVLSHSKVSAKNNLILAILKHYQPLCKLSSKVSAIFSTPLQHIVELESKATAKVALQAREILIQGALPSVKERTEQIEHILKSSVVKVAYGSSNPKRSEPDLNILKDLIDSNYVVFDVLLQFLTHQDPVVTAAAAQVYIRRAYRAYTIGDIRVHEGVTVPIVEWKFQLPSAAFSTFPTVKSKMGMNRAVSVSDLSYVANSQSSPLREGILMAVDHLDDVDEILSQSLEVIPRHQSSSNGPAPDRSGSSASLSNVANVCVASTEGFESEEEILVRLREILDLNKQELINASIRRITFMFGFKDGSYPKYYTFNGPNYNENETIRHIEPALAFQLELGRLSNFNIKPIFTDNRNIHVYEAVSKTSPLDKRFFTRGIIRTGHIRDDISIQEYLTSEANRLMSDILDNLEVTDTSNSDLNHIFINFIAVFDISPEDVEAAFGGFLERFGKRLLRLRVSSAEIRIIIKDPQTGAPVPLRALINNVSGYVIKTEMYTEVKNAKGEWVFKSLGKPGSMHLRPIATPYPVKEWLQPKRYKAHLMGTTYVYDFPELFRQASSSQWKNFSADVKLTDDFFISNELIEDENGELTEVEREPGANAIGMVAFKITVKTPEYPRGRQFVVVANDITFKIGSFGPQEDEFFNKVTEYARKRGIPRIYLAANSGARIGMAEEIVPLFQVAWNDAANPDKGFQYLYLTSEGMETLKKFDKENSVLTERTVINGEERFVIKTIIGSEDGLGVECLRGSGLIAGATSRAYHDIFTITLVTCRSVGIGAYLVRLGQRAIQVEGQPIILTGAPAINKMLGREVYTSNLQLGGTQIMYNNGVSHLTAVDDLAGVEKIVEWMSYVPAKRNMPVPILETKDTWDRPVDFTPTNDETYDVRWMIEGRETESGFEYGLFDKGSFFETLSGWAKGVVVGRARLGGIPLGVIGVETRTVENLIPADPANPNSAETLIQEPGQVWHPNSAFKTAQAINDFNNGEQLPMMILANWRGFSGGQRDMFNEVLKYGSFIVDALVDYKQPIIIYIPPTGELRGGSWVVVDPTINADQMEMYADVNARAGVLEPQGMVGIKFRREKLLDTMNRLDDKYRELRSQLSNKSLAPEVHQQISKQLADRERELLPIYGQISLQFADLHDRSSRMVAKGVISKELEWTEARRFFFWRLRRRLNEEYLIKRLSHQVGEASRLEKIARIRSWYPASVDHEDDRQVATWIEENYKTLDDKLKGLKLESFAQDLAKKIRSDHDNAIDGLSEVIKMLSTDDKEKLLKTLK

SMILES	pIC50 (fungal (fACC2) ACC2)	MIC (C. albicans ATCC 90028; [2]) [µg/mL]	MIC (C. krusei ATCC 6258; [3]) [µg/mL]	MIC [1, 4] [µg/mL]	pIC50 (human (hACC2) ACC2)	MIC (C. albicans ATCC 90028; ATCC90028, 48 h) [µg/mL]	MIC (C. krusei ATCC 6258; ATCC6258, 48 h) [µg/mL]	MIC ([1]; ATCC22019, 48 h) [µg/mL]
COc1ccccc1[C@H](Cn1c(=O)n(C(C)(C)C(=O)O)c(=O)c2c(C)c(-n3cccn3)sc21)O[C@H]1CC[C@@H](O)CC1 [Compound I-72]	8.52 to 9.22	> 4.1	> 4.1	> 4.1	8.00 to 8.52	–	–	–
COCCO[C@@H](Cn1c(=O)n([C@@H](C)C(=O)NC(C)C)c(=O)c2c(C)c(-n3cccn3)sc21)c1cc(F)ccc1OC [Compound I-73, (S)-2-(1-((R)-2-(5-fluoro-2-methoxyphenyl)-2-(2-methoxy-ethoxy)ethyl)-5-methyl-2,4-dioxo-6-(1H-pyrazol-1-yl)-1,4-dihydrothieno[2,3-d]pyrimidin-3(2H)-yl)-N-isopropylpropanamide]	8.52 to 9.22	2.1 to 4 (≈ 3.57 to 6.81 µM)	> 4.1	2.1 to 4 (≈ 3.57 to 6.81 µM)	8.00 to 8.52	–	–	–
COCCO[C@@H](Cn1c(=O)n([C@H](C)C(=O)NC(C)C)c(=O)c2c(C)c(-n3cccn3)sc21)c1cc(F)ccc1OC [Compound I-74, (R)-2-(1-((R)-2-(5-fluoro-2-methoxyphenyl)-2-(2-methoxy-ethoxy)ethyl)-5-methyl-2,4-dioxo-6-(1H-pyrazol-1-yl)-1,4-dihydrothieno[2,3-d]pyrimidin-3(2H)-yl)-N-isopropylpropanamide]	7.40 to 8.00	> 4.1	> 4.1	> 4.1	< 7.40	–	–	–
COc1ccccc1[C@H](Cn1c(=O)n(C(C)(C)C(=O)NC(C)C)c(=O)c2c(C)c(-n3cccn3)sc21)OCCC#N [Compound I-80, (R)-2-(1-(2-(2-cyanoethoxy)-2-(2-methoxyphenyl)ethyl)-5-methyl-2,4-dioxo-6-(1H-pyrazol-1-yl)-1,4-dihydrothieno[2,3-d]pyrimidin-3(2H)-yl)-N-isopropyl-2-methylpropanamide]	8.00 to 8.52	–	–	–	7.40 to 8.00	> 4.1	> 4.1	> 4.1
COc1ccccc1[C@H](Cn1c(=O)n(C(C)(C)C(N)=O)c(=O)c2c(C)c(-n3cccn3)sc21)OCCC#N [Compound I-83]	8.00 to 8.52	> 4.1	> 4.1	> 4.1	7.40 to 8.00	–	–	–
COc1ccccc1[C@H](Cn1c(=O)n(C(C)(C)C(=O)N2CCCC2)c(=O)c2c(C)c(-n3cccn3)sc21)OCCC#N [Compound I-84, (R)-3-(I-(2-methoxyphenyl)-2-(5-methyl-3-(2-methyl-1-oxo-1-(pyrrolidin-1-yl)propan-2-yl)-2,4-dioxo-6-(1H-pyrazol-1-yl)-3,4-dihydrothieno[2,3-d]pyrimidin-1(2H)-yl)ethoxy)propanenitrile]	8.52 to 9.22	> 4.1	> 4.1	> 4.1	7.40 to 8.00	–	–	–
